“Also recorded” adds a separate entry of the source.
Columns and labels:
[1] = DPPH radical-scavenging activity; conditions: 500 μM, 30 min in the dark
Experimental: For measuring the scavenging effect of analogs 1–12 on DPPH radicals, test samples (analogs 1–12 and ascorbic acid [positive reference standard]; final concentration: 500 μM) were mixed with a DPPH solution, and absorbance was measured at 517 nm after storing for 30 min in the dark to determine % DPPH radical-scavenging ability.
L-Ascorbic acid was used as a positive control. Test samples (analogs 1–12 and L-ascorbic acid; 5 mM, 20 μL) dissolved in DMSO were added to each well of a 96-well plate containing the DPPH methanol solution (0.2 mM, 180 μL), and the plate was placed in the dark at 20 °C for 30 min. The absorbance was recorded at 517 nm using a VE microplate reader to calculate DPPH radical-scavenging activity.

[2] = biological target: mushroom tyrosinase (Agaricus bisporus, UniProt C7FF04); experiment: Mushroom tyrosinase inhibition assay (dopachrome, 475 nm); type: biochemical; conditions: substrate L-tyrosine
Experimental: The plate was placed at 37 °C for 30 min, and well absorbance was measured at 475 nm to determine the generated dopachrome amounts in each well using a VersaMax® Elisa (VE) microplate reader (Molecular Devices, San Jose, CA, USA).

[3] = test system: B16F10 cells; experiment: Cytotoxicity assay on B16F10 murine melanoma cells (EZ-Cytox); type: cell-based; conditions: 1, 2, 5 and 10 μM, 72 h
Experimental: Cell viability for analogs 1–3 was examined on B16F10 cells at 1, 2, 5, and 10 μM concentrations for 72 h.
The influence of (Z)-BBTT analogs 1–3 on B16F10 cell viability was studied using an EZ-Cytox solution (EZ-1000®, DoGenBio, Seoul, Republic of Korea). B16F10 cells were seeded at a density of 1 × 10^3 in each well of a 96-well plate, and the plate was cultivated under normal cell culture conditions for 24 h. Analogs were added to each well at concentrations of 0, 1, 2, 5, and 10 μM, and then cells were cultivated for 72 h under normal cell culture conditions. An aliquot (10 μL) of the EZ-Cytox solution was added to each well and cultivated for 2 h. Well absorbance was recorded at 450 nm using a VE microplate reader to calculate cell viability.

[4] = test system: B16F10 cells; experiment: Cellular melanin level measurement in B16F10 cells; type: cell-based, murine; conditions: 72 h
Experimental: Stimulators comprising 1 μM α-melanocyte-stimulating hormone (α-MSH) and 200 μM 3-isobutyl-1-methylxanthine (IBMX) were administered 1 h after test sample treatment. The effects of analogs 1 and 3 on melanin production were determined by measuring the optical density at 405 nm after 72 h of treatment.
B16F10 cells were seeded at a density of 5000 per well of a 6-well plate, and the plate was cultivated under normal cell culture conditions for 24 h. […] In addition, 200 μM IBMX and 1 μM α-MSH (Alomone Labs™, Jerusalem, Israel) were added to each well and cultivated for 72 h under the normal cell culture conditions. To determine the cellular melanin levels, 1N–NaOH solution (100 μL) was added to each well and then kept at 60 °C for 1 h to lyse the cells. The cell lysates were washed twice with phosphate-buffered saline (PBS) and transferred to a 96-well plate, and the absorbance was recorded at 405 nm using a VE microplate reader to determine the cellular melanin content.

[5] = biological target: T1, B16F10 cellular tyrosinase (Mus musculus, UniProt P11344); experiment: Cellular tyrosinase activity measurement in B16F10 cells; type: cell-based, murine; conditions: α-MSH + IBMX, 72 h
T1 construct: endogenous in cells; host or cells: B16F10 murine melanoma cells stimulated with α-MSH and IBMX
T1 sequence (P11344 19-533): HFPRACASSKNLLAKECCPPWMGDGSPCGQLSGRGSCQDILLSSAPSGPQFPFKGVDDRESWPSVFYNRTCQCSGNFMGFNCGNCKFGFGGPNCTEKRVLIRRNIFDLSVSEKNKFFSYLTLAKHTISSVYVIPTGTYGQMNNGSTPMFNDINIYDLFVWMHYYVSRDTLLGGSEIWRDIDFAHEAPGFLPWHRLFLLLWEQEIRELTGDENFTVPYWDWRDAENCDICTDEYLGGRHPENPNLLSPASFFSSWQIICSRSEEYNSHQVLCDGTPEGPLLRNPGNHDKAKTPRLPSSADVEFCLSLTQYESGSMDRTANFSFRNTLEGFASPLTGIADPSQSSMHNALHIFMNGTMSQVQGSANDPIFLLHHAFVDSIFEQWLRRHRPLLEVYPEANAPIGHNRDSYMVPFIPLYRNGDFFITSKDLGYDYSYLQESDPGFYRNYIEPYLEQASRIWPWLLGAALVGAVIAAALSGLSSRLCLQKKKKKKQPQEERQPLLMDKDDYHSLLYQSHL
Experimental: The cellular tyrosinase inhibitory activity of the test samples was determined by measuring their optical density at 475 nm 72 h after test sample treatment.
B16F10 cells were seeded at a density of 5000 per well of a 6-well plate, and the plate was cultivated under normal cell culture conditions for 24 h. […] Stimulators (200 μM IBMX and 1 μM α-MSH) were added to each well and cultivated for 72 h under normal cell culture conditions. To determine cellular tyrosinase activity, the cells were washed twice with PBS, treated with lysis buffer solution (100 μL) comprising 50 mM phosphate buffer (pH 6.5) (90 μL), 2 mM phenylmethanesulfonyl fluoride (5 μL), and 20% Triton X-100 (5 μL), and incubated at −80 °C for 30 min. After centrifugation (10,000× g, 4 °C, and 10 min), the supernatants (80 μL each) were transferred to each well of a 96-well plate, then 10 mM L-DOPA (20 μL) was added to each well. The absorbance was measured at 475 nm at 1 min intervals for 10 min using a VE microplate reader to determine cellular tyrosinase activity.

[6] = biological target: T2, B16F10 cell tyrosinase (Mus musculus, UniProt P11344); experiment: In situ cellular tyrosinase activity in B16F10 cells (L-DOPA staining); type: cell-based, murine
T2 construct: endogenous in cells; host or cells: B16F10 murine melanoma cells stimulated with α-MSH and IBMX
T2 sequence (P11344 19-533): T1 sequence (P11344 19-533)
Experimental: To identify the in situ cellular tyrosinase inhibitory activity of analogs 1 and 3, B16F10 cells and L-DOPA were used as the experimental target cells and substrate for melanin synthesis, respectively. […] B16F10 cells were photographed after 2 h of treatment with excess L-DOPA, and the darkness of the cells was measured using the CS analyzer program (ATTO, Tokyo, Japan). Analogs 1 and 3 were used at 2, 5, and 10 μM.
After 1 h, the cells were exposed to 1 μM α-MSH and 200 μM IBMX and cultivated under normal cell culture conditions for 72 h. Cultured cells were fixed using a 4% paraformaldehyde solution for 40 min, washed twice with PBS, and permeabilized using 0.1% Triton X-100 for 2 min. L-DOPA solution (2 mM; 500 μL) was added to each well after washing twice with PBS. After the plate was placed for 2 h at 37 °C, the images for cell staining were acquired using a camera attached to a microscope (Motic, Hong Kong).

[7] = test system: HaCaT cells; experiment: Cytotoxicity assay on HaCaT cells (EZ-Cytox); type: cell-based, human; conditions: 2, 5, 10 and 20 μM, 72 h
Experimental: As keratinocytes are one of the major cells that constitute the epidermis, the effects of analogs 1–3 on HaCaT (immortalized human keratinocytes) cell viability were investigated. Analogs 1–3 were tested at concentrations of 0, 2, 5, 10, and 20 μM, and cell viability was determined 72 h after incubation.
The effect of (Z)-BBTT analogs 1–3 on HaCaT cell viability was examined using EZ-Cytox solution. HaCaT cells were seeded at a density of 1 × 10^3 in each well of a 96-well plate, and the plate was cultivated under normal cell culture conditions for 24 h. Analogs 1–3 were added to each well at concentrations of 0, 2, 5, 10, and 20 μM and then cultivated for 72 h under normal cell culture conditions. An aliquot (10 μL) of the EZ-Cytox solution was added to each well and cultivated for 2 h. Well absorbance was recorded at 450 nm using a VE microplate reader to calculate HaCaT cell viability.

[8] = ABTS cation radical scavenging activity; conditions: 100 μM, 2 min in the dark
Experimental: To measure the scavenging effects of analogs 1–12 on ABTS^+ radicals, ABTS was initially treated with potassium persulfate to yield ABTS^•+. The formed ABTS^+ radical solution was mixed with test samples (analogs 1–12 and Trolox [positive reference standard]; final concentration: 100 μM), and absorbance was measured at 732 nm after storing for 2 min in the dark to determine %ABTS^•+-scavenging ability.
ABTS^•+ was prepared by mixing equal amounts of ABTS (14 mM in H2O) and K2S2O8 (4.9 mM in H2O) and storing in the dark at 20 °C for 16 h. Prior to use, the absorbance of the prepared ABTS^•+ solution was adjusted to 0.7 ± 0.02 at 732 nm by dilution with methanol. A cosolvent (EtOH:DMSO = 10:1 [v/v]) was used to prepare solutions of the test samples (analogs 1–12 and Trolox [positive reference standard]). All test samples were used at a final concentration of 100 μM. The test sample solution (10 μL) was mixed with the adjusted ABTS^•+ solution (90 μL) in each well of a 96-well plate, and the mixture was kept in the dark at 20 °C for 2 min. The absorbance was recorded at 732 nm at 1 min intervals for 10 min using a VE microplate reader. The percentage of radical-scavenging activity was calculated using the formula % radical-scavenging activity = [(Abscontrol − Abssample)/Abscontrol] × 100, where Abssample and Abscontrol are absorbances of the sample and control, respectively.

[9] = ROS-scavenging activity (SIN-1, DCFH); conditions: 40 μM, SIN-1 10 μM
Experimental: UV-A radiation induces ROS generation substantially, and oxidative stress accelerates melanin formation in organisms. Thus, the ROS-scavenging ability of (Z)-BBTT analogs was examined to determine whether these analogs have an auxiliary ability to scavenge ROS. 3-Morpholinosydnonimine (SIN-1; 10 μM) was used as a ROS generating substance, and Trolox (40 μM) was used as a positive reference standard.
The test samples ((Z)-BBTT analogs 1–12 and Trolox [positive reference standard]) and 3-morpholinosydnonimine (SIN-1) were dissolved in DMSO and PBS, respectively. To prepare 2′,7′-dichlorodihydrofluorescein (DCFH) solution, PBS (50 mM; 4.9 mL, pH 7.4) and DCFH diacetate (2.5 mM; 0.05 mL) were mixed with esterase (15 units/10 mL; 0.05 mL). After storage for 30 min at 20 °C, the mixture was placed in the dark until further use. SIN-1 (10 µL) was added to each well of a 96-well black plate containing PBS (180 µL) and test sample (10 µL), and the plate was placed in the dark for 5 min. The prepared DCFH solution (50 µL) was added to each well of the black plate. The fluorescence of each well was recorded at 535 nm using a microplate reader (Berthold Advances GmbH & Co., Bad Wildbad, Germany) at an excitation wavelength of 485 nm. The test samples and SIN-1 were tested at final concentrations of 40 and 10 μM, respectively.

mushroom tyrosinase, sequence (C7FF04 2-392): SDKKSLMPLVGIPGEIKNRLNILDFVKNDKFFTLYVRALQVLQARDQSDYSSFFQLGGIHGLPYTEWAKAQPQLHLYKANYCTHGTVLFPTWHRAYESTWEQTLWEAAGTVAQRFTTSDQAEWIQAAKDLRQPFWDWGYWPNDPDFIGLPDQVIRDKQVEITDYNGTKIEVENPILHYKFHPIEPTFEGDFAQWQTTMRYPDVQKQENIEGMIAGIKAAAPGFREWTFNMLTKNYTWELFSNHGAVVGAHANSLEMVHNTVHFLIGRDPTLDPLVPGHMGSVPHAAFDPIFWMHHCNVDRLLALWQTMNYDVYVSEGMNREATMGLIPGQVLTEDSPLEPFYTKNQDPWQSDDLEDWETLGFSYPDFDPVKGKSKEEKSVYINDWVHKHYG

## O=C1O[C@H]([C@@H](O)CO)C(O)=C1O [Ascorbic acid, L-Ascorbic acid, reference compound]
[1]
  % DPPH radical-scavenging: 97%

## O=C1/C(=C/c2ccc(O)cc2)SC(=S)N1Cc1ccccc1 [Compound 1, (Z)-3-Benzyl-5-(4-hydroxybenzylidene)-2-thioxothiazolidin-4-one]
[2]
  inhibitory potency relative to kojic acid (IC50 ratio): four-fold lower
[3]
  cytotoxicity to B16F10 cells: not cytotoxic; also recorded: no perceptible cytotoxicity
[4]; 10 μM, α-MSH 1 μM + IBMX 200 μM, stimulators alone 5.0-fold increase
  stimulator-induced increased melanin content reduced by (fold): 1.9 fold
[4]; 2, 5 and 10 μM, concentration-dependent, α-MSH + IBMX
  effect on stimulator-induced increase in melanin contents: significantly decreased
[5]; 10 μM
  inhibition of cellular tyrosinase activity compared with kojic acid: more strongly than kojic acid
[5]; 2, 5 and 10 μM, concentration-dependent
  effect on stimulator-enhanced cellular tyrosinase activity: significantly decreased
[6]; 10 μM, L-DOPA staining
  relative dark area of cells compared with kojic acid at the same concentration: significantly less than that of kojic acid
[6]; kojic acid 10 μM, analogs 2, 5 and 10 μM, α-MSH + IBMX, 72 h
  number of cells strongly stained with melanin: reduced the number of strongly stained cells in a concentration-dependent manner
[7]
  cytotoxicity to HaCaT cells: no perceptible cytotoxicity

## Cc1c(C)c2c(c(C)c1O)CCC(C)(C(=O)O)O2 (stereo not drawn) [Trolox, reference compound]
[8]
  % ABTS^•+ scavenging: 99%
[9]
  ROS-scavenging activity (SIN-1-induced ROS levels): significantly reduced

## O=C1/C(=C/c2ccc(O)c(O)c2)SC(=S)N1Cc1ccccc1 [Compound 2, (Z)-3-Benzyl-5-(3,4-dihydroxybenzylidene)-2-thioxothiazolidin-4-one]
[3]
  cytotoxicity to B16F10 cells: cytotoxic at all tested concentrations
[8]
  % ABTS^•+ scavenging: 99%
[1]
  % DPPH radical-scavenging: 95%
[9]
  ROS-scavenging activity (SIN-1-induced ROS levels): greater ROS-scavenging potency than Trolox

## COc1ccc(/C=C2\SC(=S)N(Cc3ccccc3)C2=O)cc1O [Compound 5, (Z)-3-Benzyl-5-(3-hydroxy-4-methoxybenzylidene)-2-thioxothiazolidin-4-one]
[8]
  % ABTS^•+ scavenging: 71%
[1]
  % DPPH radical-scavenging: 17%

Source: article PMC11820736, “Design, Synthesis, and Anti-Tyrosinase, Anti-Melanogenic, and Antioxidant Activities of Novel (Z)-3-Benzyl-5-Benzylidene-2-Thioxothiazolidin-4-One Analogs” (Molecules, 2025)
